# Assay results as given in patent US20090105562A1, “SYSTEM AND METHODS FOR SCREENING OR ANALYZING TARGETS” (TAIPEI VETERANS GENERAL HOSPITAL, priority 2007, published 2009).
# Experiments:
# Assay type in all cases: cell-based, rat
# NSCs = assay: Real-time RT-PCR mRNA expression in IM-treated NSCs
# Description: For real-time RT-PCR, the total RNA was extracted using the RNAeasy kit (Qiagen, Valencia, Calif., USA). Briefly, total RNA (1 μg) of each sample was reverse transcribed in 20 μL using 0.5 μg of oligo dT and 200 U Superscript II RT (Invitrogen, Carlsbad, Calif., USA). The amplification was carried out in a total volume of 20 μl containing 0.5 μM of each primer, 4 mM MgCl2, 2 μl LightCycler™ FastStart DNA Master SYBR green I (Roche Molecular Systems, Alameda, Calif., USA) and 2 μl of 1:10 diluted cDNA. The quantification in the unknown samples was performed with LightCycler Relative Quantification Software version 3.3 (Roche Molecular Systems, Alameda, Calif., USA). In each experiment, the GAPDH housekeeping gene was amplified as a reference standard. GAPDH primers were designed: GAPDH(f): […] (nt 414-434, GenBank accession no. BC059110.1), GAPDH(r): ATGACCTTGCCCACA GCCTT (nt 713-733). Other target gene primers were as follows: BDNF(f) 5′-CCAAGGCAGGTTCAA GAG-3′. BDNF(r): 5′-CCAGCAGAAAGAGAAGAGG-3′ (nt 146-331, GenBank accession no.NM_170735). Bcl-2(f): […] (nt 527-550, GenBank accession no. NM_016993.1), Bcl-2(r): GTTGTCCA CCAGGGGTGACAT (nt 721-742). Bax(f): GTGGT TGCCCTCTTCTACTTTGC (nt 328-351, GenBank accession no. NM_017059.1), Bax(r): GAGGACT CCAGCCACAAAGATG (nt 522-544). MAP2(f): GTTTACATTGTTCAGGAC CTCATGG (nt 316-341); MAP2(r): TCGGTAAGAAAGCC AGTGTGGT (nt 551-573. GenBank accession no. NM_U12008.1). Reactions were prepared in duplicate and heated to 95° C. for 10 minutes followed by 40 cycles of denaturation at 95° C. for 10 seconds, annealing at 55° C. for 5 seconds, and extension at 72° C. for 20 seconds. All PCR reactions were performed in duplicate. Standard curves (cycle threshold values versus template concentration) were prepared for each target gene and for the endogenous reference (GAPDH) in each sample. To confirm the specificity of the PCR reaction, PCR products were electrophoresed on a 1.2% agarose gel.
# LPS-treated NSCs = assay: TUNEL assay of LPS-induced apoptosis in NSCs; settings: IM treatment vs without IM
# Description: An avidin-biotin complex method was used for the immunohistochemical staining in the differentiated NSCs. Following washes with the 3% hydrogen peroxide, sodium azide and antigens were retrieved using a microwave. Each slide was then treated with antibodies for Bcl-2 (Upstate Biotechnology, Waltham, Mass., USA), Nestin (Chemicon, Temecula, Calif., USA), 4′, 6-diamidino-2-phenylindole (DAPI; Chemicon, Temecula, Calif., USA) and MAP2 (Chemicon, Temecula, Calif., USA). Immunoreactive signals were detected with a mixture of biotinylated rabbit anti-mouse IgG and Fluoresave (Calbiochem, La Jolla, Calif., USA) under confocal microscopy (Olympus, FV300). Each individual sample was analyzed in triplicate. Furthermore, apoptotic cells were identified by the TUNEL method (In Situ Cell Death Detection Kit, POD, Roche Boehringer Mannheim Corp., IN, USA) as described in Chiou et al., J. Immunol. 167, 4098-4103, 2001. Briefly, the cells with cover slips were washed with 1× phosphate buffered saline (PBS), fixed with 4% of paraformaldehyde for 10 minutes, permeabilized with 0.1% of triton X-100 for 5 mins, and incubated with the TUNEL reagent provided for 1 hour. […] The percentage of TUNEL-positive cells was measured by the average of 6 different areas as compared to the total cell number in the same section slide (under a×200 power field of a light microscope).
# [1] = test system: NSCs isolated from the hippocampus of adult rats; assay: MTT cell viability/survival of NSCs treated with IM; settings: 3 μM IM; Day 3, Day 5 and Day 7 cultures; p<0.05
# Description: Adult Sprague-Dawley (SD) rats (8 weeks old, 250 g) were anesthetized with intraperitoneal phenobarbital (Sigma, USA), and the location of their brains was mapped. Then, the brain was surgically separated from the hippocampus region. In brief, tissues from the hippocampus of adult rats were dissociated and incubated in Hank's balanced salt solution (HBSS) containing collagenase (78 units/ml) and hyaluronidase (38 units/ml) for 10 minutes at 37° C. The tissues were then mechanically dissected and placed in a trypsin solution (1.33 mg/ml) at 37° C. for another 10 minutes. Dissociated cells were then centrifuged at 150 GG for 5 minutes. […] Viable cells were counted by trypan blue exclusion and plated as 5000 cells/200 μL per well in 96-well plates (Corning Inc, Acton, Mass., USA) with no substrate pretreatment. […] The amount of MTT fromazon product was determined using a microplate reader and the absorbance was measured at 560 nm (SpectraMax 250, Molecular Devices, Sunnyvale, Calif., USA). […] Each individual sample was analyzed in triplicate.
# [2] = Day 3, Day 5 and Day 7 of IM-treated NSCs
# [3] = Day 5 and Day 7 IM-treated vs non IM-treated NSCs, p<0.05
smiles,measurement,setting,value
"CN(C)CCCN1c2ccccc2CCc2ccccc21 [IM, imipramine]",level of Bcl-2 mRNA,"NSCs; 1, 3 and 5 μM IM, Day 7, vs Day 7 non-IM-treated NSCs",significantly increased
same,expression of Bad,NSCs; [2],not activated
same,expression of Bax,NSCs; [2],not activated
same,mRNA level of Bcl-2,NSCs; [3],significantly increased
same,mRNA level of MAP2,NSCs; [3],significantly increased
same,LPS-induced apoptosis in NSCs (TUNEL assay),LPS-treated NSCs,protected against LPS-induced apoptosis
same,cell survival (MTT assay),[1],significantly increased
